The values below come from US20260193246A1, “METHOD OF MAKING LANIFIBRANOR” (INVENTIVA, priority 2023, published 2026).

Common to all, as to format: physicochemical
A short description of data set [1]: Angle of repose (powder flow, Electrolab EFT-01). The settings on record: 50 g of powder through an orifice of 25 mm; rounded average of three experiments. As to the method: Powder flow and the angle of repose were determined using an Electrolab EFT-01 apparatus. In a first step, powder flow is measured through various orifices (10, 15 and 25 mm). In a second step, the angle of repose is measured by the height of the cone formed by a sample of 50 g of powder passing through an orifice of 25 mm. The result obtained in the rounded average of three experiments.

Data set [2] can be described thus: Compressibility index and Hausner ratio from bulk and tapped density (Electrolab ETD-1020). The protocol:
The compressibility index and Hausner ratio were determined using an Electrolab ETD-1020 apparatus using measured values of bulk density (ρbulk) and tapped density (ρtapped) as follows: [formula] [formula]

Data set [3] in a line: Dynamic vapor sorption (DVS). The settings on record: range 0% RH-95% RH. The source says: Crystalline form beta of lanifibranor is also characterized by its dynamic vapor sorption (DVS). […] In some embodiments, the DVS isotherm plot of crystalline form beta of lanifibranor is substantially in accordance with FIG. 4.
Data set [4] is described as follows: Thermogravimetry (TGA). Particulars: temperature range 25-200° C. The protocol:
Crystalline form beta of lanifibranor is also characterized by its thermogravimetry (TGA) curve. […] Above 250° C., the weight loss observed likely corresponds to degradation. In some embodiments, said TGA curve is substantially in accordance with FIG. 3.

In data set [1], `O=C(O)CCCc1cc2cc(Cl)ccc2n1S(=O)(=O)c1ccc2ncsc2c1` [crystalline form beta of lanifibranor, 1-(6-benzothiazolylsulfonyl)-5-chloro-1H-indole-2-butanoic acid] returned an angle of repose of 35 °. In data set [2], the Hausner ratio is given as 1.26 and the compressibility index is 20.64. The “maximum uptake (weight variation, DVS)” value in data set [3] is on record as “+0.1%”. The “weight loss (TGA)” value in data set [4] is “does not highlight any significant weight loss”.
